Test results as given in patent US20050171211A1, “Gingerol analogues and use thereof” (priority 2002, published 2005).
Like-named read-outs stand apart in the source and are kept apart here.

How the values were obtained:
[1] = Test about suppression of lipid peroxide generation in linoleic acid
Experimental: Using the compound of the formula (11) as obtained in Example 1 and the compound of the formula (12) as obtained in Example 2, a test about the suppression of lipid peroxide generation in linoleic acid was done. Along with the compounds, dl-α-tocopherol (manufactured by Tokyo Kasei Kogyo Co., Ltd.) was tested similarly, to obtain control data.
The test procedures are as follows. As a test result, the ratio of residual linoleic acid by the following procedure (3) is described in Table 1.
(1) After ethanol (2.0 g ) was added to linoleic acid (0.2 g; manufactured by Tokyo Kasei Kogyo Co., Ltd.), a test compound (0.01 g) and a surface active agent Nissan OT-221 (0.4 g; manufactured by NOF Corporation) placed in a 50-ml screw vial, for dissolution, distilled water (17.39 g) was added to the resulting solution for agitation, and was then sealed and left to stand alone in a thermostat at 40° C. Such sample was prepared in a duplex manner.
A blank test with no test compound added was similarly done.
(2) The amount of remaining linoleic acid one week, 2 weeks, 3 weeks and 4 weeks after the start of the test was assayed by HPLC.
The HPLC analytical conditions were as follows. Wavelength for detection: 210 nm. Mobile phase: a mixture solution of a disodium hydrogen phosphate-phosphate buffer adjusted to pH 2.5 and methanol (10:90). Flow: 1 ml/min. Column: ODS-8OTs (4.6 Φmm×150 mm). Column temperature at 40° C.
(3) Each sample was assayed by HPLC two times. The ratio of remaining linoleic acid was calculated on the basis of the mean of four assay values.

[2] = Test about scavenging DPPH radical; conditions: final concentration 10 μg/mL; for Ratio of scavenging DPPH radical: 20 minutes, darkness, ambient temperature, absorbance at 517 nm
Experimental: Concerning radical-scavenging activity, a stable radical DPPH (1,1-diphenyl-2-picrylhydrazyl) was used for assaying the radical-scavenging activities of test compounds [the compound of the formula (11) and the compound of the formula (12) and a control sample dl-α-tocopherol (manufactured by Tokyo Kasei Kogyo Co., Ltd.)]. The assay method is as follows. Tris below is an acronym of tris(hydroxymethyl)aminomethane and M represents the concentration unit Mol/L.
1 ml of 200 μM DPPH solution in ethanol was added to 800 μl of 100 mM Tris-HCl buffer, pH 7.4 and 200 μl of a test compound solution in ethanol (to a final concentration of 10 μg/mL), for sufficient agitation. After the resulting mixture was left to stand alone in darkness at ambient temperature for 20 minutes, the absorbance at 517 nm was measured (absorbance of the test solutions).
Meanwhile, 800 μl of 100 mM Tris-HCl buffer, pH 7.4, 200 μl of ethanol and 1 ml of 200 μM DPPH solution in ethanol were used for the same procedures as described above to measure the absorbance to obtain the absorbance of the blank.
The individual test compounds and the blank were repeatedly treated by the same procedures three times, and the mean of the resulting absorbance values was inserted in the following formula, to calculate the ratio of scavenging DPPH radical. Ratio of scavenging DPPH radical (%)={1-(absorbance of sample solution/absorbance of blank solution)}×100

mushroom tyrosinase = assay: Test about the inhibition of tyrosinase activity using L-dopa as substrate; type: biochemical; conditions: 0.27 or 0.54 μmol in 3 ml enzyme reaction solution, 25° C.
Experimental: Using the compound of the formula (11) obtained in Example 1, a test about the inhibition of tyrosinase activity using L-dopa as substrate was done. The same test was done about arbutin (manufactured by Tokyo Kasei Kogyo Co., Ltd.), to get control data. The test procedures are as follows. […]
(2) 0.10 ml of an enzyme solution prepared by dissolving 3.0 mg (2400 units; manufactured by Sigma Corporation) of mushroom tyrosinase in 7.0 ml of distilled water was added to the solution prepared in (1), for agitation for 15 seconds. The resulting solution was retained at 25° C., to measure the absorbance at 475 nm one minute-45 seconds later and 2 minute- 45 seconds later.
(3) The test procedures above in (1) and (2) were conducted three times for the individual test compounds and blank test (only dimethylsulfoxide), and the resulting mean was inserted in the following calculation formula to determine the ratio (%) of the inhibition of tyrosinase activity. Ratio of inhibition of tyrosinase activity (%)=[(T^1-T^2)/T^1]×100 T^1=difference in absorbance of blank solution between 2 minute-45 seconds later and one minute-45 seconds later T^2=difference in absorbance of solution with addition of test compound between 2 minute-45 seconds later and one minute-45 seconds later

ratio of remaining linoleic acid [1] | inhibition of tyrosinase activity compared with arbutin (FIG. 1) (mushroom tyrosinase) | ratio of remaining linoleic acid ([1]; 2 weeks later, 40° C., 0.01 g test compound, 0.2 g linoleic acid, HPLC) | ratio of remaining linoleic acid ([1]; 3 weeks later, 40° C., 0.01 g test compound, 0.2 g linoleic acid, HPLC) | ratio of remaining linoleic acid ([1]; 4 weeks later, 40° C., 0.01 g test compound, 0.2 g linoleic acid, HPLC) | ratio of remaining linoleic acid ([1]; one week later, 40° C., 0.01 g test compound, 0.2 g linoleic acid, HPLC) | Structure (SMILES) | ability of scavenging radical compared with dl-α-tocopherol [2] | Ratio of scavenging DPPH radical [2]
90.5% | superior to that of arbutin | – | – | – | – | CCCCCC(CC(=O)CCc1ccc(O)c(OC)c1)OC (stereo not drawn) [Compound of formula (11)] | higher levels than that of dl-α-tocopherol | 35.1%
89.2% | – | – | – | – | – | CCCCCC(CC(O)CCc1ccc(O)c(OC)c1)OC (stereo not drawn) [Compound of formula (12)] | higher levels than that of dl-α-tocopherol | 40.0%
– | – | 73.2% | 62.6% | 57.3% | 83.6% | Cc1c(C)c2c(c(C)c1O)CCC(C)(CCCC(C)CCCC(C)CCCC(C)C)O2 (racemic) [Tocopherol, dl-α-tocopherol] | – | 26.7%
